These results are taken from patent US20130072519A1, “2-PHENYL BENZOYLAMIDES” (priority 2010, published 2013).

By IC50 is commonly meant the midpoint of a concentration-inhibition curve.

One test relates to Apolipoprotein B Secretion from HepG2 Cells. The test can be described thus: Inhibition of Apolipoprotein B secretion from HepG2 cells (ELISA). The class given is cell-based, human. The conditions noted are these: HepG2 cells, 22-24 hours incubation, ApoB ELISA; Low/High IC50 columns give the 95% confidence interval. The method, then:
Inhibition of Apolipoprotein B Secretion from HepG2 Cells
To assess the inhibitory effect of the compounds of the invention on ApoB production, an endogenously ApoB producing cell line, HEPG2, was implemented in an in vitro ELISA assay. HEPG2 cells are plated at 25,000 per well (96-well plates) in media consisting of DMEM Low Glucose, 1% NEAA (non-essential amino acids), 10% FBS (heat inactivated), 1% L-Glutamine, and 1% Antimycotic-Antibiotic and incubated for 16-18 hours at 37° C. and 5% CO2. After the 16-18 hour incubation, a 12 point half-log serial of the inhibitor (1000 nM-0.003 nM) is prepared, and 1.5 ul of the serial dilution is added to HEPG2 cells, which have had their media decanted and replaced with 148 ul of fresh media, and the cells are incubated for 22-24 hours at 37° C. and 5% CO2. Two and a half hours before the 22-24 hour incubation period is completed, Nunc Maxisorp plates are coated with 100 ul of primary (coating) antibody (goat anti-apoB), diluting to a ratio of 1:1000 in 1% Carbonate-Bicarbonate Coating Buffer and incubated for at least 2 hours at room temperature before the primary antibody is decanted and the wells of the microplate are washed with 200 ul of washing buffer (1% PBS, 0.05% Tween20). Next, 200 ul of blocking buffer (1% PBS, 1:500 Western Block, 5 mg/ml BSA) is added to the wells of the microplate, and incubated for at least 30 mins. Following the 22-24 hours incubation period, cell plates are removed from the incubator, 20 ul of supernatant from each well is aspirated, added to a corresponding well in 96 well plate containing 140 ul of diluent (1:2-Blocking Buffer: Washing Buffer), and mixed. Then, 120 ul is aspirated from the dilutent-supernatant plate, added to the blocked Nunc Maxisorp 96 well plate, and placed at room temperature on a shaker to mix for at least 2 hours. The secondary (capture) antibody (mouse anti-human apoB) is prepared at a ratio of 1:4000, and the detection antibody (goat anti-mouse HRP conjugated antibody) at a ratio of 1:10,000. For each antibody, 100 ul is added to each well of the microplate and the microplate is incubated at room temperature for 2 hours, washing the microplates between each antibody addition. Colorimetric development is achieved by adding 50 ul of TMB reagent to each well, incubating for 5 mins at room temperature, then adding 50 ul of 2M Sulfuric Acid to each well. Absorbance at 450 nm is monitored in an Envision plate reader to measure the amount of ApoB formed.
Results reported as average IC50, low and high IC50 range (95% confidence interval).
Background: In an ELISA, binding on a coated surface is turned into a signal by an enzyme label.
`Cc1cccc(C(=O)Nc2ccc(CC(=O)OCC3(C(=O)OCc4ccccc4)c4ccccc4C(=O)N3C)cc2C(=O)N(C)C)c1-c1ccc(C(F)(F)F)cc1` (single isomer, unassigned; (+)) [Example 10, (+)-Benzyl 1-({2-[3-(Dimethylcarbamoyl)-4-({[6-methyl-4′-(trifluoromethyl)biphenyl-2-yl]carbonyl}amino)phenyl]acetoxy}methyl)-2-methyl-3-oxoisoindoline-1-carboxylate] had an IC50 of 14.1 nM.

`CCOC(=O)C1(COC(=O)Cc2ccc(NC(=O)c3ccccc3-c3ccc(C(F)(F)F)cc3)c(C(=O)N(C)C)c2)CCCc2ccccc21` (single isomer, unassigned; (+)) [Example 46, (+)-Ethyl 1-({2-[3-(Dimethylcarbamoyl)-4-({[4′-(trifluoromethyl)biphenyl-2-yl]carbonyl}amino)phenyl]acetoxy}methyl)-1,2,3,4-tetrahydronaphthalene-1-carboxylate] registered an IC50 of 1.66 nM.

Take `Cc1cccc(C(=O)Nc2ccc(CC(=O)OCC3(C(=O)OCc4ccccc4)c4ccccc4C(=O)N3C)cc2C(=O)N(C)C)c1-c1ccc(C(F)(F)F)cc1` (single isomer, unassigned; (-)) [Example 9, (−)-Benzyl 1-({2-[3-(Dimethylcarbamoyl)-4-({[6-methyl-4′-(trifluoromethyl)biphenyl-2-yl]carbonyl}amino)phenyl]acetoxy}methyl)-2-methyl-3-oxoisoindoline-1-carboxylate]: the IC50 turned out to be 0.2 nM.

In the case of `CCOC(=O)C1(COC(=O)Cc2ccc(NC(=O)c3cccc(C)c3-c3ccc(C(F)(F)F)cc3)c(C(=O)N(C)C)c2)NC(=O)c2ccccc21` (stereo not drawn) [Example 11], the IC50 was 29.4 nM.

With `CCOC(=O)C1(COC(=O)Cc2ccc(NC(=O)c3cccc(C)c3-c3ccc(C(F)(F)F)cc3)c(C(=O)N(C)C)c2)NC(=O)c2ccccc21` (stereo not drawn) [Example 12], the IC50 is 156 nM.

The compound `CCOC(=O)C1(COC(=O)Cc2ccc(NC(=O)c3ccccc3-c3ccc(C(F)(F)F)cc3)c(C(=O)N(C)C)c2)c2ccccc2C(=O)N1CC` (stereo not drawn) [Example 19] yielded an IC50 of 0.107 nM.

`CCOC(=O)C1(COC(=O)Cc2ccc(NC(=O)c3ccccc3-c3ccc(C(F)(F)F)cc3)c(C(=O)N(C)C)c2)c2ccccc2C(=O)N1CC` (stereo not drawn) [Example 20] had an IC50 of 1.76 nM.

`CN(C)C(=O)c1cc(CC(=O)OCC2(C(=O)OCc3ccccc3)c3ccccc3C(=O)N2C)ccc1NC(=O)c1ccccc1-c1ccc(C(F)(F)F)cc1` (stereo not drawn) [Example 22] showed an IC50 of 83.5 nM.

`CN(C)C(=O)c1cc(CC(=O)OCC2(C(=O)OCc3ccccc3)c3ccccc3C(=O)N2C)ccc1NC(=O)c1ccccc1-c1ccc(C(F)(F)F)cc1` (stereo not drawn) [Example 23] registered an IC50 of 0.333 nM.

Still in this test, the particulars now being: Homo sapiens, HepG2, HepG2 cells, 22-24 hours incubation, ApoB ELISA; Low/High IC50 columns give the 95% confidence interval.
In turn, `CCOC(=O)C1(COC(=O)Cc2ccc(NC(=O)c3ccccc3-c3ccc(C(F)(F)F)cc3)c(C(=O)N(C)C)c2)c2ccccc2C(=O)N1C` (racemic) [Example 4] displayed an IC50 of 0.846 nM.

`Cc1cccc(C(=O)Nc2ccc(CC(=O)OCC3(C(=O)OCc4ccccc4)c4ccccc4C(=O)N3C)cc2C(=O)N(C)C)c1-c1ccc(C(F)(F)F)cc1` (racemic) [Example 8] gave an IC50 of 0.436 nM.

In turn, `CCOC(=O)C1(COC(=O)Cc2ccc(NC(=O)c3ccccc3-c3ccc(C(F)(F)F)cc3)c(C(=O)N(C)C)c2)c2ccccc2C(=O)N1C(C)C` (racemic) [Example 14] registered an IC50 of 2.16 nM.

On to `CCOC(=O)C1(COC(=O)Cc2ccc(NC(=O)c3ccccc3-c3ccc(C(F)(F)F)cc3)c(C(=O)N(C)C)c2)c2ccccc2C(=O)N1CC` (racemic) [Example 15], for which the IC50 is 1.45 nM.

As to `CCOC(=O)C1(COC(=O)Cc2ccc(NC(=O)c3ccccc3-c3ccc(C(F)(F)F)cc3)c(C(=O)N(C)C)c2)c2ccccc2C(=O)N1CC(F)(F)F` (racemic) [Example 16], half-maximal inhibition (IC50) required 2.73 nM.

On to `CCOC(=O)C1(COC(=O)Cc2ccc(NC(=O)c3ccccc3-c3ccc(C(F)(F)F)cc3)c(C(=O)N(C)C)c2)NC(=O)c2ccccc21` (racemic) [Example 21], for which the IC50 came to 16.5 nM.

Compound `CCOC(=O)C1(COC(=O)Cc2ccc(NC(=O)c3ccccc3-c3ccc(C(F)(F)F)cc3)c(C(=O)N(C)C)c2)c2ccccc2C(=O)N1Cc1ccc(OC)cc1OC` (racemic) [Example 27] returned an IC50 of 30.8 nM.

As to `COC(=O)C1(COC(=O)Cc2ccc(NC(=O)c3ccccc3-c3ccc(C(F)(F)F)cc3)c(C(=O)N(C)C)c2)CCc2ccccc21` (racemic) [Example 28], half-maximal inhibition (IC50) was put at 3.17 nM.

`CCOC(=O)C1(COC(=O)Cc2ccc(NC(=O)c3ccccc3-c3ccc(C(F)(F)F)cc3)c(C(=O)N(C)C)c2)CCc2ccccc21` (racemic) [Example 29] had an IC50 of 2.04 nM.

In the case of `CCOC(=O)C1(COC(=O)Cc2ccc(NC(=O)c3ccccc3-c3ccc(C(F)(F)F)cc3)c(C(=O)N(C)C)c2)OC(=O)c2ccccc21` (racemic) [Example 30], inhibition was half-maximal at 6.5 nM (IC50).

As for `CCOC(=O)C1(COC(=O)Cc2ccc(NC(=O)c3ccccc3-c3ccc(C(F)(F)F)cc3)c(C(=O)N(C)C)c2)CCc2cccnc21` (racemic) [Example 37], the IC50 is 8.47 nM.

Compound `CCOC(=O)C1(COC(=O)Cc2ccc(NC(=O)c3ccccc3-c3ccc(C(F)(F)F)cc3)c(C(=O)N(C)C)c2)CCCc2ccccc21` (racemic) [Example 41] yielded an IC50 of 0.701 nM.

Consider `CCOC(=O)C1(COC(=O)Cc2ccc(NC(=O)c3ccccc3-c3ccc(C(F)(F)F)cc3)c(C(=O)N(C)C)c2)CCCc2cccnc21` (racemic) [Example 42], for which half-maximal inhibition (IC50) required 0.529 nM.

Compound `CCOC(=O)C1(COC(=O)Cc2ccc(NC(=O)c3cccc(C)c3-c3ccc(C(F)(F)F)cc3)c(C(=O)N(C)C)c2)c2ncccc2C(=O)N1CC` (racemic) [Example 44] displayed an IC50 of 0.328 nM.

`CCN1C(=O)c2ccccc2C1(COC(=O)Cc1ccc(NC(=O)c2cccc(C)c2-c2ccc(C(F)(F)F)cc2)c(C(=O)N(C)C)c1)C(=O)OC` (racemic) [Example 65, methyl 1-({2-[3-(dimethylcarbamoyl)-4-({[6-methyl-4′-(trifluoromethyl)biphenyl-2-yl]carbonyl}amino)phenyl]acetoxy}methyl)-2-ethyl-3-oxoisoindoline-1-carboxylate]: the IC50 is 0.38 nM.

Turning to `CCOC(=O)C1(COC(=O)Cc2ccc(NC(=O)c3ccccc3-c3ccc(C(F)(F)F)cc3)c(C(=O)N(C)C)c2)CCCc2ccccc21` (single isomer, unassigned; (-)) [Example 45, (−)-Ethyl 1-({2-[3-(Dimethylcarbamoyl)-4-({[4′-(trifluoromethyl)biphenyl-2-yl]carbonyl}amino)phenyl]acetoxy}methyl)-1,2,3,4-tetrahydronaphthalene-1-carboxylate], half-maximal inhibition (IC50) required 1.63 nM.

`CCOC(=O)[C@]1(COC(=O)Cc2ccc(NC(=O)c3ccccc3-c3ccc(C(F)(F)F)cc3)c(C(=O)N(C)C)c2)c2ccccc2C(=O)N1C` [Example 1, Ethyl 1R-({2-[3-(dimethylcarbamoyl)-4-({[4′-(trifluoromethyl)biphenyl-2-yl]carbonyl}amino)phenyl]acetoxy}methyl)-2-methyl-3-oxoisoindoline-1-carboxylate] showed an IC50 of 0.495 nM.

`CCOC(=O)C1(COC(=O)Cc2ccc(NC(=O)c3cccc(C)c3-c3ccc(C(C)(C)C)cc3)c(C(=O)N(C)C)c2)OC(=O)c2ccccc21` (stereo not drawn) [Example 2] displayed an IC50 of 519 nM.

In turn, `CCOC(=O)C1(COC(=O)Cc2ccc(NC(=O)c3ccc(C(F)(F)F)cc3-c3ccc(C(F)(F)F)cc3)c(C(=O)N(C)C)c2)OC(=O)c2ccccc21` (stereo not drawn) [Example 3] showed an IC50 of 15.7 nM.

For `CCOC(=O)C1(COC(=O)Cc2ccc(NC(=O)c3ccccc3-c3ccc(C(F)(F)F)cc3)c(Cl)c2)c2ccccc2C(=O)N1C` (stereo not drawn) [Example 6], the IC50 was 4.77 nM.

`CCOC(=O)C1(COC(=O)Cc2ccc(NC(=O)c3cccc(C)c3-c3ccc(C(F)(F)F)cc3)c(C(=O)N(C)C)c2)c2ccccc2C(=O)N1C` (stereo not drawn) [Example 7] yielded an IC50 of 15.6 nM.

As for `CCOC(=O)C1(COC(=O)Cc2ccc(NC(=O)c3ccccc3-c3ccc(C(F)(F)F)cc3)c(C(=O)N(C)C)c2)c2ccccc2C(=O)N1C` (stereo not drawn) [Example 13], the IC50 stood at 7.18 nM.

Compound `CCOC(=O)C1(COC(=O)Cc2ccc(NC(=O)c3ccccc3-c3ccc(C(F)(F)F)cc3)c(C)c2)c2ccccc2C(=O)N1C` (stereo not drawn) [Example 17] gave an IC50 of 3.07 nM.

Take `CCOC(=O)C1(COC(=O)Cc2ccc(NC(=O)c3ccccc3-c3ccc(C(F)(F)F)cc3)cc2)c2ccccc2C(=O)N1C` (stereo not drawn) [Example 18]: the IC50 was found to be 23.9 nM.
